The values below come from patent US9532972B2, “Increasing taxane sensitivity in cancer cells” (UNIVERSITY OF CENTRAL FLORIDA RESEARCH FOUNDATION, INC., priority 2012, dated 2017).

Holding throughout (format): cell-based
The test system of one experiment is P69. Nature of the experiment: Flow cytometry cell cycle analysis (propidium iodide DNA content). The note with it: P69 cells, 2 μM docetaxel, 24 hrs. How it is done: (§1) To confirm the results of the MTS assay, while further elucidating the link between LIMK1 expression and taxane sensitivity, the effects of taxane treatment on cell cycle were analyzed. […] Using flow cytometry to monitor DNA content, the percentages of cells in each phase of the cell cycle including the percentage of cells in the sub-G1 population (FIGS. 2A and B) were determined. […] Although after 24 hrs of treatment, the difference between cells lines became more apparent.
(§2) Cells were seeded into 60 mm dishes and transfected the following day with one of the previous constructs. […] At each time point, media and cells were collected, washed, and fixed in 70% EtOH at −20° C. for at least 30 mins. Cells were then washed and stained for 30 mins in PBS containing: 2% BSA; 0.1% Pluronic F-68 (Sigma); Propidium Iodide [80 ug/mL] (Sigma); RNase [100 ug/mL]. Data was collected using FACSCalibur and analyzed using Cell Quest and ModFit software.
In general terms: In flow cytometry, cells or beads pass a laser one at a time.

A further experiment has as its system MDA-MB-231. Described as above. The note with it: MDA-MB-231 cells, 2 μM docetaxel, 24 hrs. As for the experimental part:
as §1, §2

In another experiment the test system is MCF7. The description is as above. The note with it: MCF7 cells, 2 μM docetaxel, 24 hrs. As for the experimental part: as §1
(§3) In order to confirm the implication of LIMK1 induced resistance to taxane treatment, the expression of LIMK1 in each cell line was altered. […] Sensitivity to the taxane treatment was monitored by MTS assay.
as §2

The test system of another experiment is PC-3. The description is as above. The note with it: PC-3 cells, 2 μM docetaxel, 24 hrs. How it is done:
as §1, §3, §2

For experiment [1], the system named is cleaved caspases 3, cleaved caspases 9 and cleaved PARP. Nature of the experiment: Western blot of apoptotic markers in docetaxel treated cell lysates. From the text: FIG. 5: Higher LIMK1 expression diminished Taxane induced apoptotic response. PC3 cells were transiently transfected with either LIMK1 targeting shRNA construct or scrambled shRNA construct. […] After 24 hrs of DTX treatment, cell were harvested and apoptotic markers were monitored by immunoblot. Cyt c Release: PC3 and MCF7 were transiently transfected with LIMK1 and Scrambled shRNA constructs, P69 cells were transiently transfected with LIMK1 expression vector, LIMK1-shRNA vector or control vector. […] Following treatment cells were harvested and cytosolic, mitochondrial, and nuclear fractions were isolated. Presence of Cyt c in the cytosol was monitored by immunoblot of cytosolic fraction. Densinometry was used to determine relative values.
Western blots were probed with the following antibodies: mouse anti-human-GAPDH (Sigma); mouse anti-FLAG (Sigma); rabbit anti-human-LIMK1 (Santa Cruz; Santa Cruz, Calif.); mouse anti-human LIMK1 (BD Pharmingen, San Diego, Calif.); rabbit anti-Cleaved Caspase 3/9 and anti-Cleaved PARP (Cell Signaling); rabbit anti-human-alpha-tubulin (Sigma). Mouse anti-Cytochrome c (R&D Systems). Rabbit anti-Prohibitin (Abcam). Rabbit anti-Bax (Santa Cruz). Rabbit anti-Bcl2 (Cell Signaling)
For orientation: Immunoblotting shows a protein as a band on a membrane.

With `CC(=O)O[C@@]12CO[C@@H]1C[C@H](O)[C@@]1(C)C(=O)[C@H](O)C3=C(C)[C@@H](OC(=O)[C@H](O)[C@@H](NC(=O)OC(C)(C)C)c4ccccc4)C[C@@](O)([C@@H](OC(=O)c4ccccc4)[C@H]21)C3(C)C` [docetaxel], the sub-G1 population was determined as 15% with P69, 25% in the experiment on MDA-MB-231, 5% in the experiment on MCF7 and 6% with PC-3. In addition, the “cleaved PARP” value in experiment [1] was “increased levels”. Moreover, the “cleaved caspases 3” value in experiment [1] was “increased levels”. For the same compound, the “cleaved caspases 9” value in experiment [1] is “increased levels”.
